Test results from patent publication US9738610B2, “Indazole derivatives and uses thereof” (Whitehead Institute for Biomedical Research, priority 2012, dated 2017).
“Also recorded” adds a separate entry of the source.

What was measured:
Aspergillus terreus = Aspergillus terreus susceptibility test (CLSI M38-A2); type: cell-based
Experimental: Aspergillus terreus (A. terreus) susceptibility testing was performed as described in Clinical Laboratory Standards Institute document […]-A2 (CLSI […]-A2) (CLSI. Reference Method for Broth Dilution Antifungal Susceptibility Testing of Filamentous Fungi; Approved Standard-Second Edition. CLSI, 940 West Valley Road, Suite 1400, Wayne, Pa. 19087-1898 USA, 2003).

[1] = tested on: Saccharomyces cerevisiae strain W303-1a; test: In vivo inhibition of fungal respiration (growth on glycerol); type: cell-based; conditions: glycerol medium, 48 hours
Experimental: Saccharomyces cerevisiae (S. cerevisiae) strain W303-1a was grown overnight in Yeast-Peptone-Dextrose media, washed, and diluted into Yeast Nitrogen Base media with 2.5% glycerol containing compounds at a range of dilutions.

human Complex III = molecular target: T1, human Complex III (Homo sapiens, UniProt P00156); test: In vitro inhibition of Complex III, human enzyme; type: biochemical; conditions: FIG. 14A curve 2
T1 construct: Mitochondrial membranes were prepared from yeast (Meisinger et al., Methods Mol. Biol. 2006, 313:33-9.) or HEK293 cells; endogenous in cells; host or cells: HEK293 cells (mitochondrial membranes)
Experimental: (§1) Compounds described herein were added to plates in a buffer containing 50 mM Tris-Cl pH 7.3, 10 mM NaN3, 0.01% BSA, and 0.05% Tween-20. Mitochondrial membranes (2-5 μg protein) were added to the buffer, followed by oxidized equine cytochrome C (Sigma) at a final concentration of 50 μM. Reactions were initiated by adding decylubiquinol to a final concentration of 50 μM. Reaction progress was monitored by reading the increase in signal at 550 nm on a Tecan Evo plate reader. […] All measurements were performed in triplicate.

[2] = molecular target: cytochrome B of S. cerevisiae resistant to known antifungal agents (Saccharomyces cerevisiae, UniProt P00163, L275F); conditions: FIG. 14A curve 3
Experimental: as §1

[3] = molecular target: cytochrome B of yeast S. cerevisiae (wild type) (Saccharomyces cerevisiae, UniProt P00163); test: biochemical
C. albicans [4] = test: Candida albicans susceptibility test (CLSI M27-A3); type: cell-based; conditions: FIG. 9
Experimental: Candida albicans susceptibility testing was performed as described in Clinical Laboratory Standards Institute document M27-A3 (CLSI M27-A3) (CLSI. Reference Method for Broth Dilution Antifungal Susceptibility Testing of Yeasts; Approved Standard—Third Edition. CLSI, 940 West Valley Road, Suite 1400, Wayne, Pa. 19087-1898 USA, 2003).

[5] = tested on: Candida albicans strain CaCi-2; test: Cytotoxicity to fluconazole-resistant strain CaCi-2; type: cell-based; conditions: fluconazole alone
CaCi-8 = test: MIC of fluconazole against CaCi-8; type: cell-based; conditions: Candida albicans; read-out: Minimum inhibitory concentration (MIC) against CaCi-8
Experimental: (§2) In order to identify non-fungitoxic chemosensitizers (“probes” or “probe compounds”) of C. albicans, compounds from the NIH's Molecular Libraries Small Molecule Repository (MLSMR) (mli.nih.gov/mli/secondary-menu/mlscn/ml-small-molecule-repository/) were evaluated in the screening cascade summarized in FIG. 3. The C. albicans strains used in the primary screen and secondary assay 1 (CaCi-2 and CaCi-8, respectively) are both clinical isolates that partially respond to fluconazole treatment (Redding et al., Clin. Infect. Dis. 1994, 18, 240-242). […] In the primary assay, CaCi-2 cells are exposed to 8 μg/mL fluconazole; this induces a basal level of 60-80% growth inhibition with additional suppression of the trailing growth associated with this particular strain (Redding et al., Clin. Infect. Dis. 1994, 18, 240-242).

[6] = tested on: Candida albicans strain SC5314; test: Cytotoxicity to fluconazole-sensitive strain SC5314; type: cell-based; conditions: fluconazole alone
C. albicans CaCi-2 = test: CaCi-2 growth inhibition in the presence of 8 μg/ml fluconazole (Alamar Blue); type: cell-based, Candida albicans; conditions: Candida albicans, CACI2; 8 μg/mL fluconazole alone in the primary assay; read-out: Basal level of growth inhibition of CaCi-2
Experimental: Fluconazole was obtained from Sequoia Research Products, Ltd. and prepared in a 2 mg/ml stock solution in phosphate buffered saline (PBS). […] PBS (Catalog No. 21-040-CV) without calcium and magnesium was obtained from Cellgro. Penicillin/Streptomycin (Pen/Strep) was obtained from Gibco and prepared 100× in PBS.
RPMI medium (1×) was prepared by dissolving 10.4 g powdered medium in 800 ml water. A buffer of 34.52 g MOPS was added. While stirring, pH was adjusted to 7.0 with 10 N NaOH. Next, 10 ml uridine solution and 50 ml glucose solution were added. The final volume was adjusted to 1000 ml, and filter sterilized.
The following yeast strains were used in this study: C. albicans CaCi-2. Fungal inoculum was prepared as follows: 500 μl of strain was inoculated from cryopreserved stock into a 250-ml shaker flask containing 30 ml growth medium and shaken overnight at 30° C. The optical density (OD 600) of 1 ml fungal culture in a cuvette was read using a standard optical density reader (Eppendorf BioPhotometer Plus), with growth medium as a background blank. The desired volume of fungal inoculums was diluted to desired volume of fungal inoculums according to the following formula: (1/OD measured)×(Desired Final Volume of Inoculum)×0.3=Volume of fungal culture (μl) to add to desired volume of growth medium. When added to media in wells, this yields a calculated starting OD of the fungal inoculum of 0.00015.
Fluconazole stock solution was added to the fungal inoculum to achieve 8 μg/ml. Pen/Strep was added to the media to a 1% concentration (v/v). A Thermo Combi nL was used to dispense 20 μl/well of assay media into all wells. Geldanamycin was dispensed in positive control wells using Thermo Combi nL for a final concentration of 3 μM. Then, 100 nl of test compound was pinned from compound plates into assay plates using a CyBi-Well pin tool. A further 20 μl/well of culture was dispensed into the assay media in all wells. The plates were incubated in a humidified (90% humidity) Liconic incubator at 37° C. without agitation for 48 hours. Alamar Blue was diluted 1:40 in Ca/Mg-free PBS. To all plates, […] of the diluted Alamar Blue was added to the plates to a final dilution factor of 1:200. The plates were incubated for an additional 2 hours. Then, Relative Fluorescence Intensity (RFU) of each well was read on standard plate reader as a measure of relative fungal growth.

CaCi-2 = test: MIC of fluconazole against CaCi-2; type: cell-based; conditions: Candida albicans; read-out: Minimum inhibitory concentration (MIC) against CaCi-2
Experimental: as §2

fungus = conditions: read-out: IC50, single-agent antifungal activity; cited from earlier work
C. albicans [7] = conditions: cited from earlier work

COC(=O)Cn1nc(-c2ccccc2)c2ccccc21 [Compound I-3]
Inhibitory activity against A. terreus (Aspergillus terreus): shows inhibitory activity
Inhibitory activity against S. cerevisiae (respiratory growth) [1]: completely inhibits respiratory growth; also recorded: shows inhibitory activity
Inhibition of human Complex III in vitro (human Complex III): active
Inhibitory activity against resistant S. cerevisiae [2]: showed inhibitory activity
IC50 [3]: ~600 nM

c1ccc(COc2cccc(-c3nn(Cc4nnco4)c4ccccc34)c2)cc1 [Compound I-52]
Inhibitory activity against A. terreus (Aspergillus terreus): shows inhibitory activity
Inhibitory activity against S. cerevisiae (respiratory growth) [1]: shows inhibitory activity
Inhibition of C. albicans in absence and presence of fluconazole (FCZ) (C. albicans [4]): more active in inhibiting C. albicans in presence of fluconazole (FCZ) than in absence thereof

OC(Cn1cncn1)(Cn1cncn1)c1ccc(F)cc1F [fluconazole, reference compound]
Effect on CaCi-2 [5]: not cytostatic or cytotoxic
MIC (CaCi-8): 8 µg/mL
Effect on SC5314 [6]: cytostatic, but not cytotoxic
inhibition at 8 µg/mL (C. albicans CaCi-2): 60 to 80%
MIC (CaCi-2): 2 µg/mL

Plagiochin E
IC50 (fungus): 3800 nM
Concentration that increased yeast susceptibility to fluconazole (C. albicans [7]): 2.4 µM
